In the test the target is human serum albumin (HSA) (Homo sapiens, UniProt P02768). Nature of the test: proton relaxation enhancement titration. The format is binding. To be noted: read-out: KD(HSA).

This note sets out measurements from publication PMC8112388 (Inorganic chemistry, 2021).

Chain of human serum albumin (HSA) (P02768 25-609): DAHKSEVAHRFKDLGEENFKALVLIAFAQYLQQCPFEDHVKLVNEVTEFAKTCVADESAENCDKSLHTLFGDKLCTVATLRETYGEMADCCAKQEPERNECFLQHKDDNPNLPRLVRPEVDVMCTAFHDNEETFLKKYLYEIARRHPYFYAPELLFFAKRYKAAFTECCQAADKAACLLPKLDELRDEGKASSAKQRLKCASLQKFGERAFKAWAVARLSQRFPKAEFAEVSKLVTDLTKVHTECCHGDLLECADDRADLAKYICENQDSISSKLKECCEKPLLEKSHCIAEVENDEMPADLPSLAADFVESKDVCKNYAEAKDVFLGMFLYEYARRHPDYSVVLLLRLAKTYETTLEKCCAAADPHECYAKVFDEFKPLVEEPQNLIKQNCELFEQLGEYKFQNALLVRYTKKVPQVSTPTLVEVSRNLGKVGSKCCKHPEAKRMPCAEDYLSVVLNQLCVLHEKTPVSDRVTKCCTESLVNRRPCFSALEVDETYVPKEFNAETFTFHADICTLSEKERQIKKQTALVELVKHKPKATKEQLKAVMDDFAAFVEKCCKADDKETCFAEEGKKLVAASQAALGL

For orientation: Kd means the concentration at which binding is half-saturated. For the substance MnPyC3A–BPEN [Mn(3)], the Kd turned out to be 28 ± 1 µM.
